# Molecular target: HPK1 (Homo sapiens, UniProt Q92918)
# Assay: HPK1 Kinase Binding Assay
# Conditions: LanthaScreen tracer 222 binding, active HPK1, one hour incubation at 25° C.
# Procedure: A stock solution of 1 mM test compound was prepared in DMSO. The compound plate was prepared by 3-fold and 11-point serial dilutions. 0.1 μL of the compound in DMSO was transferred from the compound plate to the white 384 well polystyrene plates. The assay buffer contained 50 mM HEPES, pH 7.5, 0.01% Tween-20, 5 mM MgCl2, 0.01% BSA, and 5 mM DTT. 5 μl of 4 nM active HPK1 (SignalChem M23-11G) prepared in the buffer was added to the plate. The enzyme concentration given was based on the given stock concentration reported by the vender. 5 μl of 18 nM tracer 222 (ThermoFisher PV6121) and 4 nM LanthaScreen Eu-Anti GST antibody (ThermoFisher PV5595) were added. After one hour incubation at 25° C., the plates were read on a PHERAstar FS plate reader (BMG Labtech). Ki values were determined.
row,Ki,Compound
1,100 to 500 nM,COc1ccccc1-c1ccc2[nH]nc(-c3ccc(N4CCN(C)CC4)cc3)c2n1 [Example 2]
2,500 to 10000 nM,"CN1CCN(c2ccc(-c3n[nH]c4ccc(-c5ccc(=O)n(C)c5)nc34)cc2)CC1 [Example 30, 1-Methyl-5-(3-(4-(4-methylpiperazin-1-yl)phenyl)-1H-pyrazolo[4,3-b]pyridin-5-yl)pyridin-2(1H)-one]"
3,500 to 10000 nM,"COC(=O)c1ccccc1-c1ccc2[nH]nc(-c3ccc(N4CCN(C)CC4)cc3)c2n1 [Example 20, Methyl 2-(3-(4-(4-methylpiperazin-1-yl)phenyl)-1H-pyrazolo[4,3-b]pyridin-5-yl)benzoate]"
4,500 to 10000 nM,"CC(=O)Nc1ccccc1-c1ccc2[nH]nc(-c3ccc(N4CCN(C)CC4)cc3)c2n1 [Example 21, N-(2-(3-(4-(4-Methylpiperazin-1-yl)phenyl)-1H-pyrazolo[4,3-b]pyridin-5-yl)phenyl)acetamide]"
5,100 to 500 nM,"CN1CCN(c2ccc(-c3n[nH]c4ccc(-c5ccccc5)nc34)cc2)CC1 [Example 1, 3-(4-(4-Methylpiperazin-1-yl)phenyl)-5-phenyl-1H-pyrazolo[4,3-b]pyridine]"
6,100 to 500 nM,"CN1CCN(c2ccc(-c3n[nH]c4ccc(-c5cccc6ncccc56)nc34)cc2)CC1 [Example 36, 5-(3-(4-(4-Methylpiperazin-1-yl)phenyl)-1H-pyrazolo[4,3-b]pyridin-5-yl)quinoline]"
7,100 to 500 nM,"CN1CCN(c2ccc(-c3n[nH]c4ccc(-c5ccccc5O)nc34)cc2)CC1 [Example 14, 2-(3-(4-(4-Methylpiperazin-1-yl)phenyl)-1H-pyrazolo[4,3-b]pyridin-5-yl)phenol]"
8,100 to 500 nM,"CN1CCN(c2ccc(-c3n[nH]c4ccc(-c5ccccc5-c5ccccc5)nc34)cc2)CC1 [Example 22, 5-(Biphenyl-2-yl)-3-(4-(4-methylpiperazin-1-yl)phenyl)-1H-pyrazolo[4,3-b]pyridine]"
9,100 to 500 nM,"CN1CCN(c2ccc(-c3n[nH]c4ccc(-c5cccc6c5ccn6C)nc34)cc2)CC1 [Example 39, 5-(1-Methyl-1H-indol-4-yl)-3-(4-(4-methylpiperazin-1-yl)phenyl)-1H-pyrazolo[4,3-b]pyridine]"
10,100 to 500 nM,"CNC(=O)c1cccc(-c2ccc3[nH]nc(-c4ccc(N5CCN(C)CC5)cc4)c3n2)c1 [Example 17, N-Methyl-3-(3-(4-(4-methylpiperazin-1-yl)phenyl)-1H-pyrazolo[4,3-b]pyridin-5-yl)benzamide]"
11,100 to 500 nM,"CN1CCN(c2ccc(-c3n[nH]c4ccc(-c5cccc6c5CC(=O)N6)nc34)cc2)CC1 [Example 38, 4-(3-(4-(4-Methylpiperazin-1-yl)phenyl)-1H-pyrazolo[4,3-b]pyridin-5-yl)indolin-2-one]"

# The next lines start with the compound.
row,Compound,Ki
1,"CS(=O)(=O)N1CCC(n2cc(-c3n[nH]c4ccc(-c5ccccc5F)nc34)cn2)CC1 [Example 59, 5-(2-Fluorophenyl)-3-(1-(1-(methylsulfonyl)piperidin-4-yl)-1H-pyrazol-4-yl)-1H-pyrazolo[4,3-b]pyridine]",500 to 10000 nM
2,"Fc1ccccc1-c1ccc2[nH]nc(-c3ccncc3)c2n1 [Example 52, 5-(2-Fluorophenyl)-3-(pyridin-4-yl)-1H-pyrazolo[4,3-b]pyridine]",500 to 10000 nM
3,"CN1CCN(c2ccc(-c3n[nH]c4ccc(-c5cccc6c5OCCO6)nc34)cc2)CC1 [Example 16, 5-(2,3-Dihydrobenzo[b][1,4]dioxin-5-yl)-3-(4-(4-methylpiperazin-1-yl)phenyl)-1H-pyrazolo[4,3-b]pyridine]",100 to 500 nM
4,"Fc1ccccc1-c1ccc2[nH]nc(-c3cnn(C4CCNCC4)c3)c2n1 [Example 58, 5-(2-Fluorophenyl)-3-(1-(piperidin-4-yl)-1H-pyrazol-4-yl)-1H-pyrazolo[4,3-b]pyridine]",100 to 500 nM
5,"CN1CCN(c2ccc(-c3n[nH]c4ccc(-c5ccncc5)nc34)cc2)CC1 [Example 25, 3-(4-(4-Methylpiperazin-1-yl)phenyl)-5-(pyridin-4-yl)-1H-pyrazolo[4,3-b]pyridine]",100 to 500 nM
6,"CC(=O)N1CCC(n2cc(-c3n[nH]c4ccc(-c5ccccc5F)nc34)cn2)CC1 [Example 60, 1-(4-(4-(5-(2-Fluorophenyl)-1H-pyrazolo[4,3-b]pyridin-3-yl)-1H-pyrazol-1-yl)piperidin-1-yl)ethanone]",500 to 10000 nM
7,"CN1CCN(c2ccc(-c3n[nH]c4ccc(-c5cccc6c5OCC6)nc34)cc2)CC1 [Example 15, 5-(2,3-Dihydrobenzofuran-7-yl)-3-(4-(4-methylpiperazin-1-yl)phenyl)-1H-pyrazolo[4,3-b]pyridine]",100 to 500 nM
8,"CN1CCN(c2ccc(-c3n[nH]c4ccc(-c5cccc6c5CCC6NCCO)nc34)cc2)CC1 (centres unmarked) [Example 49, 2-(4-(3-(4-(4-Methylpiperazin-1-yl)phenyl)-1H-pyrazolo[4,3-b]pyridin-5-yl)-2,3-dihydro-1H-inden-1-ylamino)ethanol]",≤ 100 nM
9,"CN1CCN(c2ccc(-c3n[nH]c4ccc(-c5cccc(N(C)C)c5)nc34)cc2)CC1 [Example 18, N,N-Dimethyl-3-(3-(4-(4-methylpiperazin-1-yl)phenyl)-1H-pyrazolo[4,3-b]pyridin-5-yl)aniline]",500 to 10000 nM
10,"CN1CCN(C(=O)c2ccc(-c3n[nH]c4ccc(-c5ccccc5F)nc34)cc2)CC1 [Example 56, (4-(5-(2-Fluorophenyl)-1H-pyrazolo[4,3-b]pyridin-3-yl)phenyl)(4-methylpiperazin-1-yl)methanone]",500 to 10000 nM
11,Cn1cc(-c2n[nH]c3ccc(-c4ccccc4F)nc23)cn1 [Example 54],100 to 500 nM
12,"Fc1ccccc1-c1ccc2[nH]nc(-c3ccccc3)c2n1 [Example 51, 5-(2-Fluorophenyl)-3-phenyl-1H-pyrazolo[4,3-b]pyridine]",500 to 10000 nM
13,"CCc1cn2cccc(-c3ccc4[nH]nc(-c5ccc(N6CCN(C)CC6)cc5)c4n3)c2n1 [Example 45, 5-(2-Ethylimidazo[1,2-a]pyridin-8-yl)-3-(4-(4-methylpiperazin-1-yl)phenyl)-1H-pyrazolo[4,3-b]pyridine]",100 to 500 nM
14,"O=C(Nc1ccccc1)c1ccc(-c2n[nH]c3ccc(-c4ccccc4F)nc23)cc1 [Example 57, 4-(5-(2-Fluorophenyl)-1H-pyrazolo[4,3-b]pyridin-3-yl)-N-phenylbenzamide]",500 to 10000 nM
15,"CNC(=O)c1ccc(-c2n[nH]c3ccc(-c4ccccc4F)nc23)cc1 [Example 53, 4-(5-(2-Fluorophenyl)-1H-pyrazolo[4,3-b]pyridin-3-yl)-N-methylbenzamide]",100 to 500 nM

# Reference: patent publication US11891388B2 (Incyte Corporation, priority 2016, dated 2024)
